Consider 104 molecules from ChEMBL document CHEMBL3507680, “University of Dundee, Gates Library screen for HepG2 cell viability”.

The data set is described as follows: Human HepG2 cell viability assay in 384 well format. The format is toxicity, cell-based. Set-up: dose 125 nL, time 70.5 hour; cytotoxicity at 70.5 h: concentration not given beside the values. To be noted: HepG2 cells, read-out: Inhibition.

`O=C(COC1CCCC1)NCCc1nc(-c2ccccn2)cs1`: the cytotoxicity at 70.5 h was -3.01%.
As for `O=C(NCc1ccc(N2CC=CC2)cc1)Nc1nnc(C2CC2)s1`, the figure is 22.1%; as for `CC(C)(C)S(=O)(=O)CCNC(=O)c1ccc2ccccc2c1`, 0.161%.
As for `COC(=O)N1CCC(Nc2ccc(Cl)c(C#N)n2)CC1`, the figure is -0.879%; as for `Cc1nn(C)c(Cl)c1C1CCCN1CC(=O)NC1CCCCC1` (centres undefined), 5.03%; as for `Cc1nn(C)c(C)c1C(=O)NCc1cc(N(C)C)nc2ccccc12`, 27.3%.
As for `Cn1cc(CC2CC(=O)N(Cc3ccccc3OC(F)F)C2=O)cn1` (centres undefined), the figure is -0.223%; as for `CN(C(=O)NCC1(CN2CCOCC2)CCCCC1)C1CC1`, -4.71%; as for `CCOC(=O)CNC(=O)c1scnc1C`, -8.4%.
For `Cc1n[nH]c(C2CN(C(=O)COCC(F)(F)F)CCO2)n1` (centres undefined), the cytotoxicity at 70.5 h is -5.9%.
Under `CC(CC(=O)N1CCCN(Cc2cscn2)CC1)n1cccc1` (centres undefined) stands -6.05%; under `Cc1c(C(=O)NC2=NCCS2)cnn1-c1ccc(Br)cc1`, -15%.
Under `O=C(c1ccoc1)N(Cc1cccnc1)C1CC1` stands -21.3%.
As for `CC(=O)Nc1nc(CS(=O)(=O)CCCc2ccccc2)cs1`, the cytotoxicity at 70.5 h is -9.04%.
As for `O=C(c1cccnc1)N1CCSCC1`, the figure is -16.5%; as for `O=C(NCC(O)COc1ccccc1)Nc1nncs1` (centres undefined), 21.4%; as for `COc1ccc(OC(F)F)c(NCC(=O)NCC(=O)N2CCCC2)c1`, -7.93%.
For `COc1ccc(Cl)c(NCC(=O)NCC(=O)N2CCCC2)c1`, the cytotoxicity at 70.5 h is -18.4%.
With `COc1ccc(NCC(=O)NCC(=O)N2CCCC2)c(C(F)(F)F)c1`, the cytotoxicity at 70.5 h is -2.2%.
As for `O=C(c1ccoc1)N(Cc1ccncc1)C1CC1`, the figure is -14%; as for `COc1ccc(CNC(=O)CCc2c(C)noc2C)cc1F`, -12.8%.
For `N#Cc1ccc(C(=O)N(Cc2ccncc2)C2CC2)cc1`, the cytotoxicity at 70.5 h is -6.43%.
Consider `O=C(NCC1CCC1)c1cccc(CN2CCS(=O)(=O)CC2)c1`, for which the cytotoxicity at 70.5 h is -16.2%.
Under `NC(=O)C1CCN(CCc2ccc(NCc3ccsc3)cc2)CC1` stands -11.9%; under `CC(C)CC(CCO)CNC(=O)N1CCCC1(C)C` (centres undefined), 2.81%.
Under `CCN(C(C)=O)C(c1cccnc1)c1cc(C)cc(C)c1` (centres undefined) stands 6.16%.
Turning to `Cn1cnnc1CCNC(=O)c1ccccc1OC1CCC1`, the cytotoxicity at 70.5 h is 7.31%.
`CC(C)CC(CCO)CNC(=O)N1CCC1(C)C` (centres undefined): the cytotoxicity at 70.5 h is -1.15%.
As for `CCN(C(c1cccnc1)c1cc(C)cc(C)c1)S(C)(=O)=O` (centres undefined), the figure is -9.96%.
Take `CC(c1cccc(O)c1)N(C)S(N)(=O)=O` (centres undefined): the cytotoxicity at 70.5 h was 37%.
Under `NC(=O)C1CCN(C(=O)Cc2ccc(Cl)c(Cl)c2)CC1` stands -2.27%; under `Cc1ccsc1C(=O)NC(C)c1ccc2c(c1)CCC(=O)N2` (centres undefined), -1.83%; under `Cn1cc(NC(=O)NCc2ccoc2)ccc1=O`, -3.69%.
As for `CN(Cc1ccsc1)C(=O)Nc1cccc(N2CCOC2=O)c1`, the figure is 26.8%.
As for `Cn1cc(NC(=O)CCc2ccsc2)ccc1=O`, the figure is -5.97%; as for `Cc1ncc(CN(C)C(=O)Nc2cccc(CN3CCOC3=O)c2)s1`, -3.49%; as for `Cc1ccc(CN(C(=O)C(C)S(C)(=O)=O)C2CC2)cc1C` (centres undefined), -4.96%.
For `CN(C)c1cccc(C(=O)Nc2cn(C)c(=O)n(C)c2=O)c1`, the cytotoxicity at 70.5 h is -3.1%.
With `Cn1cc(S(=O)(=O)N2CCCC2Cn2ccnc2)cn1` (centres undefined), the cytotoxicity at 70.5 h was -3.56%.
As for `Cc1nn(C(C)C)c(C)c1S(=O)(=O)Nc1ccc(C(=O)O)c(Cl)c1`, the figure is -5.52%.
Turning to `Cc1cc2cc(CNC3CCN(CC4CCOC4)CC3)oc2cc1C` (centres undefined), the cytotoxicity at 70.5 h amounted to 10.8%.
Regarding `CCn1cc(S(=O)(=O)NC(=O)CCc2c[nH]c3ccccc23)cn1`, the cytotoxicity at 70.5 h is -0.706%.
Under `COc1ccc(CNC(=O)NCCc2nc(C)c(C)s2)cn1` stands -3.08%.
As for `Cn1cc(S(=O)(=O)NC(CO)Cc2c[nH]c3ccccc23)cn1` (centres undefined), the figure is -7.44%; as for `Cc1cc(C)cc(C(=O)NCc2ncnn2C)c1`, -5.75%; as for `CC(NC(=O)c1sccc1C1CC1)c1ccc2c(c1)CC(=O)N2` (centres undefined), -1.98%.
As for `Cc1cc2cc(CNC3CCN(S(C)(=O)=O)CC3)oc2cc1C`, the cytotoxicity at 70.5 h is -1.78%.
As for `CCN(Cc1ccoc1)C(=O)NC1CCN(CC2CC2)C1` (centres undefined), the figure is -5.67%; as for `COCCCn1ccc(NCc2cnc(C(C)(C)C)s2)n1`, 27.4%.
As for `Cc1nc(CCNC(Cc2ccncc2)C(F)(F)F)cs1` (centres undefined), the figure is -3.19%; as for `Cc1cnc(CCNC(Cc2ccncc2)C(F)(F)F)s1` (centres undefined), -7.12%.
On to `CCOC(=O)C(C)Nc1cccc(COCc2ccco2)c1` (centres undefined), for which the cytotoxicity at 70.5 h is -1.34%.
Under `CC(C)(C)c1nc(CN(CCC2CCCCC2)CC(N)=O)no1` stands 22.6%; under `O=S(=O)(Cc1ccccc1F)Cc1nnnn1C1CC1`, -14.6%; under `Cc1ccc(NS(=O)(=O)c2cnn(Cc3ccccc3)c2)c(C(=O)O)c1`, -21.3%.
Consider `CCNC(=O)CCC(=O)N1CCC(Oc2cc(C)ccc2C)CC1`, for which the cytotoxicity at 70.5 h was -19.2%.
Under `O=S(=O)(Cc1c(F)cccc1Cl)Cc1nnnn1C1CC1` stands -13.2%; under `CC(CC(=O)NCCS(N)(=O)=O)C1CCCCC1` (centres undefined), -9.82%; under `[O-][S+](Cc1c(F)cccc1Cl)Cc1nnnn1C1CC1` (centres undefined), -14.6%.
Under `CCSc1ccc(C(=O)N2CCCC2C(=O)N2CCOCC2)cn1` (centres undefined) stands -12.5%; under `Cn1cc(C(O)CNC(=O)c2ccc(F)cc2Cl)cn1` (centres undefined), -13%.
On to `O=C(NCCO)Nc1c(F)cc(F)cc1-c1ccccc1`, for which the cytotoxicity at 70.5 h is -10.7%.
As for `Cc1nc(NC(=O)c2nn(-c3ccc(F)cc3C)cc2O)n[nH]1`, the figure is -14.6%; as for `CN1CCCN(C(=O)c2cnsn2)c2cc(Cl)ccc21`, -13.8%; as for `O=C(CNC(=O)Nc1c(F)cc(F)cc1-c1ccccc1)NC1CC1`, -10.3%.
On to `CN1CCN(C(=O)c2cnsn2)c2cc(F)ccc21`, for which the cytotoxicity at 70.5 h came to 1.4%.
As for `COc1ccc(CN2CCN(CCn3ccnc3)CC2)cc1F`, the figure is -13.3%; as for `CN(CC1(O)CCCC1)C(=O)c1cccc(Nc2cnccn2)c1`, -19.5%.
On to `CN1CCCN(C(=O)c2cnsn2)c2cc(F)ccc21`, for which the cytotoxicity at 70.5 h stood at 25.1%.
With `CN1CCN(c2ccc(F)cc2C(N)=O)CC1`, the cytotoxicity at 70.5 h was -12.1%.
Under `Cc1ccc(C(=O)NCC(O)c2cnn(C)c2)c(Br)c1` (centres undefined) stands -14.7%; under `Cc1ccc(F)c2c1N(C(=O)c1cn(CC(=O)N(C)C)nn1)CCC2`, -10.6%; under `CCOc1cncc(N2CCCC2c2nnc3n2CCCCC3)n1` (centres undefined), -3.47%.
Under `COc1ccc(-n2ccc(C(=O)N(CCN(C)C)C(C)C)n2)cc1` stands -10.3%.
Under `Cc1cc(N(C)C)nc(N2CCN(C(C)c3nc(C)no3)CC2)n1` (centres undefined) stands 22.7%; under `COc1ccccc1C1(CNc2ccc(C(=O)N(C)C)cn2)CC1`, 25.8%.
In the case of `CCn1ncc2c1CCCC2NCc1csc(COC)n1` (centres undefined), the cytotoxicity at 70.5 h came out at 21.6%.
Under `CCOc1ccc(N2CCC(C(O)c3ccccc3)CC2)nn1` (centres undefined) stands 51.9%; under `CCN(CC(=O)NC(C)C)C(=O)C(C)(C)c1ccc2c(c1)OCCO2`, -8.1%; under `COc1cc(C)nc(N2CCN(C(C)c3nc(C)no3)CC2)n1` (centres undefined), -6.32%.
As for `O=C1OCCN1CCS(=O)(=O)c1cccc(Br)c1`, the figure is -2.02%; as for `O=S(=O)(NCCN1CC=CC1)c1ccc(Cl)cc1`, -6.79%.
Under `O=C1OCCN1CCS(=O)(=O)c1cccc(Cl)c1` stands -5.19%; under `CS(=O)(=O)CCOCCNc1ccc(C#N)cc1F`, -7.64%; under `CCOc1cccc(NC(=O)c2cscn2)n1`, -9.11%.
Take `CCOc1cccc(COC(=O)c2cscn2)n1`: the cytotoxicity at 70.5 h was -4.87%.
Under `COC(=O)c1ccc(N2CCC(c3ccccc3)CC2)nn1` stands -8.39%; under `O=S(=O)(CCCNCCn1cccn1)c1ccccc1`, -14.5%; under `COCC(C)NC(=O)CN1CCC(C)CC1` (centres undefined), -20.8%.
Under `CN(Cc1cccnc1)C(CO)c1cccc(Br)c1` (centres undefined) stands -7.61%.
Consider `CCS(=O)(=O)NC(CCSC)C(=O)Nc1ccc(F)cc1` (centres undefined), for which the cytotoxicity at 70.5 h was -85.2%.
As for `CNS(=O)(=O)c1ccc(CNC(=O)N(C)C(C)COC)cc1` (centres undefined), the figure is -97.7%; as for `Cc1cc(N2CCc3cncnc3C2)n2nc(C(F)(F)F)nc2n1`, -104%.
With `O=C(CN(CC(O)c1ccc(F)cc1)C1CC1)NC1CCOCC1` (centres undefined), the cytotoxicity at 70.5 h is -91.7%.
As for `CNC(=O)c1ccccc1NCc1ncnn1C`, the figure is -96.8%; as for `CC(Nc1ccc(F)cc1)c1nnnn1-c1ccccc1` (centres undefined), -109%.
Consider `COc1ccc(C(N)=O)cc1NCc1ncc(C(C)(C)C)o1`, for which the cytotoxicity at 70.5 h was -81.1%.
As for `Cc1nc(N2CCCC2)ccc1NCc1ccccn1`, the figure is -96.9%.
Under `CCc1ccc(NC(=O)c2ncc(C(N)=O)cc2Cl)cc1F` stands -107%; under `Cc1cc(NC(=O)NC2CCN(C(C)C)CC2)c2ncccc2c1`, -85.3%; under `CC(C)n1cnnc1C1CCCN(S(=O)(=O)c2c[nH]cn2)C1` (centres undefined), -78.9%.
As for `CCc1nn(C)c2[nH]nc(NC(=O)c3cccnc3NC(C)C)c12`, the figure is -50.3%.
`CCCNC(=O)c1cccc(CNCc2csc(C(C)(C)C)n2)c1`: the cytotoxicity at 70.5 h was -44.8%.
As for `CN(C)CCN(Cc1cccc(F)c1)C(=O)c1ccc2nccn2c1`, the figure is -43.4%.
